From patent US4986982A, “Cosmetic composition” (priority 1988, dated 1991)

Columns and labels:
physchem = conditions: 100 mm phosphate buffer
Experimental: (§1) (i) The chosen ester of pyroglutamic acid was dissolved in aqueous buffer of a selected pH value, to provide a 0.1% w/v solution of the ester;
(§2) (ii) Intact (unhydrolysed) ester was analysed by high performance liquid chromatography at regular time intervals.
(§3) (iii) The log of the amount of the ester remaining intact versus time was plotted to give a straight line response.
(§4) (iv) From this plot, the time required for half of the ester of pyroglutamic acid to be hydrolysed (half of the ester remaining intact), can be determined if necessary by extrapolation.
(§5) *Assay performed in 100 mM phosphate buffer at 30° C.

[1] = Delivery of pyroglutamic acid to the stratum corneum after topical application of tritiated esters to the arms of volunteers (radio-tracer technique); format: in vivo, human; conditions: [3H] pyroglutamic acid applied topically instead of ester
From the text: Accordingly, [^3 H] esters of pyroglutamic acid were each dissolved at 1% w/v in anhydrous ethanol or in an oil-in-water emulsion base. […] The [^3 H] pyroglutamic acid was separated from unchanged ester by chromotography on AG1X8 resin and the amount delivered to the skin expressed as nmoles per mg of stratum corneum protein.

[2] = Stability of esters of pyroglutamic acid in aqueous buffer (half-life of hydrolysis, intact ester by HPLC)
Experimental: as §1, §2, §3, §4, §5

SMILES | half-life (physchem; pH 4) | half-life (physchem; pH 7) | further results
O=C1CCC(C(=O)O)N1 (stereo not shown) [[^3 H] pyroglutamic acid, 2-pyrrolidone-5-carboxylic acid] | – | – | amount of tritiated free acid recovered from the stratum corneum [1]: negligible amount
CCOC(=O)[C@@H]1CCC(=O)N1 [Pyroglutamic acid ethyl ester, pyroglutamic acid ethyl ester] | – | – | half-life ([2]; 100 mm phosphate buffer, pH 4): 11000 h; half-life ([2]; 100 mm phosphate buffer, pH 7): 58 h; half-life ([2]; aqueous buffer, pH 6.5): 288 h; half-life ([2]; aqueous buffer, pH 6.8): 168 h; half-life ([2]; aqueous buffer, pH 7): 57.6 h; half-life ([2]; aqueous buffer, pH 7.4): 48 h; half-life ([2]; aqueous buffer, pH 7.8): 24 h
CCCCCCOC(=O)[C@@H]1CCC(=O)N1 [Pyroglutamic acid n-hexyl ester, pyroglutamic acid n-hexyl ester] | 750 days | 4 days | –
CCOC(=O)C(C)OC(=O)C1CCC(=O)N1 (stereo not shown) [Ethyl-2-[pyroglutamoyloxy]-n-propionate, ethyl-2-[pyroglutamoyloxy]-n-propionate] | 70.8 days | 0.375 days | –

Continued, in another order:

half-life (physchem; pH 4) | half-life (physchem; pH 7) | SMILES | further results
750 days | 4 days | CCCCCCCCOC(=O)[C@@H]1CCC(=O)N1 [Pyroglutamic acid n-octyl ester, pyroglutamic acid n-octyl ester] | –
625 days | 3.33 days | CCCCOC(=O)[C@@H]1CCC(=O)N1 [Pyroglutamic acid n-butyl ester, pyroglutamic acid n-butyl ester] | –
